Measured values published in patent US8021853B2, “Inhibition of the β3 subunit of L-type Ca2+ channels” (priority 2002, dated 2011).

What was measured:
[1] = system: islets from both wild type and β3−/− mice; assay: glucose-induced [Ca2+]i oscillations in islets/β-cells (fura-2 340/380 nm fluorescence ratio); assay type: cell-based, mouse
Description: Changes in [Ca^2+]i were next evaluated. […] The changes in [Ca^2+]i subsequent to the initial increase were categorized into three groups: slow oscillations (period of approximately 160 seconds), fast oscillations (period of approximately 10 seconds) and no oscillations. In wild type mice, 43 recordings (43 islets) were made.

[2] = system: islets from both β3−/− and wild type mice; assay: carbamylcholine-induced activation of PLC, [Ca2+]i in islets; assay type: cell-based, mouse
Protocol: (§1) The whole-cell configuration of the patch-clamp technique was performed as follows: pipettes were pulled from borosilicate glass, coated with Sylgard near the tips and fire-polished. The pipettes ([…]) were filled with a solution containing 150 mM N-methyl-D-glucamine, 125 mM HCl, 1.2 mM MgCl2, 10 mM EGTA, 5 mM HEPES and 3 mM MgATP. pH was adjusted to 7.15 with KOH. Bath buffer contained (in mM) NaCl 138, KCl 5.6, MgCl2 1.2, CaCl2 10, HEPES 5 and pH 7.4. Islets or isolated cells were loaded with 2 μM fura 2/AM for 30 min in KRBB. For measurements of CCh (carbamylcholine) effects in Ca^2+-free medium, KRBB containing no Ca^2+ and 100 μM EGTA was used. After loading, a single islet or cells attached to a coverslip were transferred to an open perfusion chamber and maintained at 37° C. Measurements of 340/380 nm fluorescence ratio, reflecting [Ca^2+]i, were done as described in the art (Zaitsev, S. V. et al. 1995, Proc. Natl. Acad. Sci. USA 92:9712-9716). Time constant of decay in [Ca^2+]i was calculated with a double exponential decay equation using quasi Newton algorithm (Statistica for Windows, v. 5.0, StatSoft, Inc., USA). For measurements of [Ca^2+]ER, the low affinity Ca^2+-sensitive fluorescent dye X-Rhod-5N (Molecular Probes) was employed. […] were incubated with 5 μM X-Rhod-5N/AM for 1 hour at 4° C. to ensure dye loading into intracellular compartments. […]

[3] = system: islets from β3−/− mice compared to wild type mice; assay: increase in [Ca2+]i on addition of 2.5 mM extracellular Ca2+ after depletion of the Ca2+-pool; assay type: cell-based, mouse; details: 2 μM; Ca2+-pool depleted
Protocol: as §1

[4] = system: islets from control and β3−/− mice; assay: insulin release in response to glucose from isolated islets; assay type: cell-based, mouse; details: islets treated with thapsigargin
Protocol: Islets of Langerhans were isolated by collagenase digestion and maintained overnight in RPMI 1640 culture medium (Flow Laboratories, UK). Single cells, obtained by shaking the islets in Ca^2+-free medium, were seeded into plastic dishes. For measurements of insulin release, islets were pre-incubated in Krebs-Ringer bicarbonate buffer (KRBB) for 30 min at 37° C. Groups of 3 islets were transferred to tubes containing 0.3 ml KRBB with test substances and incubated for another 30 min at 37° C. The incubation was terminated by cooling the samples on ice. Samples were stored at −20° C. until insulin was analyzed.
To further verify this notion, changes in [Ca^2+]i and insulin exocytosis were measured simultaneously, applying a depolarizing pulse protocol mimicking an oscillatory versus a monophasic increase in [Ca^2+]i.

[5] = system: islets from both wild type and β3−/− mice; details: treatment of β-cells; Roe et al. 1998; cited from earlier work

NCCOB(c1ccccc1)c1ccccc1 [2-APB, 2-aminoethoxydiphenyl borane]
effect on [Ca2+]i oscillations (blocking the InsP3-receptor) ([1]; β-cells from β3−/− mice): transformed [Ca^2+]i oscillations from fast into slow

C[N+](C)(C)CCOC(N)=O.[Cl-] [Carbamylcholine, carbamylcholine]
effect on [Ca2+]i [2]: produced a transient increase in [Ca^2+]i

[Gd] [gadolinium]
effect on the increase in [Ca2+]i after addition of 2.5 mM extracellular Ca2+ [3]: did not affect

C/C=C(/C)C(=O)O[C@H]1C(C)=C2[C@H]([C@@H]1OC(=O)CCCCCCC)[C@@](C)(OC(C)=O)C[C@H](OC(=O)CCC)[C@@]1(O)[C@H]2OC(=O)[C@@]1(C)O [thapsigargin]
insulin release in response to glucose, control versus β3−/− mice [4]: no different | effect on glucose-induced oscillations in [Ca2+]i ([1]; 1 μM, 30 min preincubation, islets from both wild type and β3−/− mice): prevented glucose-induced oscillations in [Ca^2+]i | effect on [Ca2+]i oscillations [5]: transform [Ca^2+]i oscillations into a monophasic elevation in [Ca^2+]i
